Measurements from patent US8383581B2, “Short-chain peptides as parathyroid hormone (PTH) receptor agonist” (Cadila Healthcare Limited, priority 2009, dated 2013).
Where a SMILES comes first, the peptide text is derived from it. [ ]: non-standard residue; d: D form. ξ: configuration not given here. Arg(NO2) = N=C(NCCC[C@H](N)C(=O)O)N[N+](=O)[O-]; αMePhe(2,6-F2) = C[C@](N)(Cc1c(F)cccc1F)C(=O)O; ξαMePhe(2,6-F2) = CC(N)(Cc1c(F)cccc1F)C(=O)O; αMePhe(2-F) = C[C@](N)(Cc1ccccc1F)C(=O)O; ξαMePhe(2-F) = CC(N)(Cc1ccccc1F)C(=O)O; hCit = NC(=O)NCCCC[C@H](N)C(=O)O; Cit = NC(=O)NCCC[C@H](N)C(=O)O; Nle = CCCC[C@H](N)C(=O)O; Orn = NCCC[C@H](N)C(=O)O; Ac5c = NC1(C(=O)O)CCCC1; Aib = CC(C)(N)C(=O)O

Experiments:
Type in all cases: in vitro ADME
[1] = Stability of peptides in human plasma; settings: human, plasma; for metabolised at 24 h, 2 μM: pH 7.8
In short: (§1)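 Peptides at 2 μM final incubated 0–24 h at 37 °C (50 mM triethanolamine-HCl, pH 7.8) in each matrix, matrix level set to degrade ~50% PTH(1-34) in 1 h; TFA-quenched, C18 HPLC at 206 nm with ESI-MS peak identification; percent degradation from peak areas at each time point.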

[2] = Stability of peptides in simulated gastric fluid (pH 1.5; HCl, NaCl and Pepsin); settings: pH 1.5; for % degradation of peptides in 24 h when incubated with simulated gastric fluid: 2 μM; for half-life / half-life (t1/2) in simulated gastric fluid: simulated gi fluid
[3] = Stability of peptides in simulated intestinal fluid (pH 7.5); settings: pH 7.5; for half-life / half-life (t1/2) in simulated intestinal fluid: simulated gi fluid; for % degradation of peptides in 24 h when incubated with simulated intestinal fluid: 2 μM
In short: as §1

[4] = Stability of peptides in human liver microsomes; settings: human, microsomes; for % degradation of peptides in 24 h when incubated with liver microsomes: 2 μM, pH 7.8
In short: as §1

Row | SMILES | half-life (t1/2) in human plasma [1] | metabolised at 24 h, 2 μM [1] [%] | % degradation of peptides in 24 h when incubated with simulated gastric fluid [2] [%] | half-life [2] [h] | half-life [3] [h] | % degradation of peptides in 24 h when incubated with simulated intestinal fluid [3] [%] | half-life [4] [h] | % degradation of peptides in 24 h when incubated with liver microsomes [4] [%] | half-life [1] [h] | half-life (t1/2) in simulated gastric fluid [2] | half-life (t1/2) in simulated intestinal fluid [3]
1 | CCCC[C@H](NC(=O)C(C)(Cc1ccccc1F)NC(=O)[C@H](CCC(N)=O)NC(=O)[C@@H](NC(=O)[C@H](CCC(=O)O)NC(=O)C(C)(C)NC(=O)[C@@H](NC(=O)C(C)(C)N)C(C)C)[C@@H](C)CC)C(=O)N[C@@H](Cc1c[nH]cn1)C(=O)N[C@@H](CCC(N)=O)C(=O)N[C@@H](CCCN)C(=O)NC(C)(C)C(=O)N[C@@H](CCCNC(N)=O)C(=O)NC(C)(Cc1c(F)cccc1F)C(N)=O (some centres unmarked) [Seq. ID. 290] (H-[Aib]V[Aib]EIQ[ξαMePhe(2-F)][Nle]HQ[Orn][Aib][Cit][ξαMePhe(2,6-F2)]-NH2) | (9) h | 75 | 100 | 0.5 | 0.5 | 100 | 0.5 | 100 | – | – | –
2 | CCCC[C@H](NC(=O)C(C)(Cc1ccccc1F)NC(=O)[C@H](CCC(N)=O)NC(=O)[C@@H](NC(=O)[C@H](CCC(=O)O)NC(=O)C(C)(C)NC(=O)[C@@H](NC(=O)C1(N)CCCC1)C(C)C)[C@@H](C)CC)C(=O)N[C@@H](Cc1c[nH]cn1)C(=O)N[C@@H](CCC(N)=O)C(=O)N[C@@H](CCCN)C(=O)N[C@@H](C)C(=O)NC(C)(Cc1c(F)cccc1F)C(=O)NC(C)(Cc1ccccc1F)C(N)=O (some centres unmarked) [Seq. ID. 315] (H-[Ac5c]V[Aib]EIQ[ξαMePhe(2-F)][Nle]HQ[Orn]A[ξαMePhe(2,6-F2)][ξαMePhe(2-F)]-NH2) | (9) h | 71 | 100 | 0.5 | 0.5 | 100 | 0.5 | 100 | – | – | –
3 | CCCC[C@H](NC(=O)[C@](C)(Cc1ccccc1F)NC(=O)[C@H](CCC(N)=O)NC(=O)[C@@H](NC(=O)[C@H](CCC(=O)O)NC(=O)C(C)(C)NC(=O)[C@@H](NC(=O)C(C)(C)N)C(C)C)[C@@H](C)CC)C(=O)N[C@@H](Cc1c[nH]cn1)C(=O)N[C@@H](CCC(N)=O)C(=O)N[C@@H](CCCN)C(=O)N[C@@H](C)C(=O)N[C@@H](CCCNC(=N)N[N+](=O)[O-])C(=O)N[C@@](C)(Cc1ccccc1F)C(N)=O [Seq. ID. 329] (H-[Aib]V[Aib]EIQ[αMePhe(2-F)][Nle]HQ[Orn]A[Arg(NO2)][αMePhe(2-F)]-NH2) | (9) h | 70 | 100 | 0.5 | 0.5 | 100 | 0.5 | 100 | – | – | –
4 | CCCC[C@H](NC(=O)C(C)(Cc1ccccc1F)NC(=O)[C@H](CCC(N)=O)NC(=O)[C@@H](NC(=O)[C@H](CCC(=O)O)NC(=O)C(C)(C)NC(=O)[C@@H](NC(=O)C(C)(C)N)C(C)C)[C@@H](C)CC)C(=O)N[C@@H](Cc1c[nH]cn1)C(=O)N[C@@H](CCC(N)=O)C(=O)N[C@@H](CCCNC(N)=O)C(=O)N[C@@H](C)C(=O)N[C@@H](CCCNC(N)=O)C(=O)NC(C)(Cc1ccccc1F)C(N)=O (some centres unmarked) [Seq. ID. 345] (H-[Aib]V[Aib]EIQ[ξαMePhe(2-F)][Nle]HQ[Cit]A[Cit][ξαMePhe(2-F)]-NH2) | (9) h | 70 | 100 | 0.5 | 0.5 | 100 | 0.5 | 100 | – | – | –
5 | CCCC[C@H](NC(=O)C(C)(Cc1ccccc1F)NC(=O)[C@H](CCC(N)=O)NC(=O)[C@@H](NC(=O)[C@H](CCC(=O)O)NC(=O)C(C)(C)NC(=O)[C@@H](NC(=O)C1(N)CCCC1)C(C)C)[C@@H](C)CC)C(=O)N[C@@H](Cc1c[nH]cn1)C(=O)N[C@@H](CCC(N)=O)C(=O)N[C@@H](CCCNC(N)=O)C(=O)NC(C)(C)C(=O)NC(C)(Cc1c(F)cccc1F)C(=O)NC(C)(Cc1ccccc1F)C(N)=O (some centres unmarked) [Seq. ID. 380] (H-[Ac5c]V[Aib]EIQ[ξαMePhe(2-F)][Nle]HQ[Cit][Aib][ξαMePhe(2,6-F2)][ξαMePhe(2-F)]-NH2) | – | 0 | 50 | 4 | > 24 | 00 | 2 | 86 | > 24 | – | –
6 | CCCC[C@H](NC(=O)[C@](C)(Cc1c(F)cccc1F)NC(=O)[C@H](CCC(N)=O)NC(=O)[C@@H](NC(=O)[C@H](CCC(=O)O)NC(=O)C(C)(C)NC(=O)[C@@H](NC(=O)C(C)(C)N)C(C)C)[C@@H](C)CC)C(=O)N[C@@H](Cc1c[nH]cn1)C(=O)N[C@@H](CCC(N)=O)C(=O)N[C@@H](CCCNC(N)=O)C(=O)NC(C)(C)C(=O)N[C@@](C)(Cc1c(F)cccc1F)C(=O)N[C@@](C)(Cc1c(F)cccc1F)C(N)=O [Seq. ID. 390] (H-[Aib]V[Aib]EIQ[αMePhe(2,6-F2)][Nle]HQ[Cit][Aib][αMePhe(2,6-F2)][αMePhe(2,6-F2)]-NH2) | – | 0 | 55 | 4 | > 24 | 00 | 2 | 84 | > 24 | – | –
7 | CCCC[C@H](NC(=O)C(C)(Cc1ccccc1F)NC(=O)[C@H](CCC(N)=O)NC(=O)[C@@H](NC(=O)[C@H](CCC(=O)O)NC(=O)C(C)(C)NC(=O)[C@@H](NC(=O)C1(N)CCCC1)C(C)C)[C@@H](C)CC)C(=O)N[C@@H](Cc1c[nH]cn1)C(=O)N[C@@H](CCC(N)=O)C(=O)N[C@@H](CCCCNC(N)=O)C(=O)N[C@@H](C)C(=O)N[C@@H](CCCNC(N)=O)C(=O)NC(C)(Cc1ccccc1F)C(N)=O (some centres unmarked) [Seq. ID. 411] (H-[Ac5c]V[Aib]EIQ[ξαMePhe(2-F)][Nle]HQ[hCit]A[Cit][ξαMePhe(2-F)]-NH2) | – | 77 | 14 | – | – | 45 | 1 | 81 | 8 | (8) h | (6) h
8 | CCCC[C@H](NC(=O)C(C)(Cc1c(F)cccc1F)NC(=O)[C@H](CCC(N)=O)NC(=O)[C@@H](NC(=O)[C@H](CCC(=O)O)NC(=O)C(C)(C)NC(=O)[C@@H](NC(=O)C(C)(C)N)C(C)C)[C@@H](C)CC)C(=O)N[C@@H](Cc1c[nH]cn1)C(=O)N[C@@H](CCC(N)=O)C(=O)N[C@@H](CCCCNC(N)=O)C(=O)NC(C)(C)C(=O)NC(C)(C)C(=O)NC(C)(Cc1ccccc1F)C(N)=O (some centres unmarked) [Seq. ID. 430] (H-[Aib]V[Aib]EIQ[ξαMePhe(2,6-F2)][Nle]HQ[hCit][Aib][Aib][ξαMePhe(2-F)]-NH2) | – | 0 | 45 | 4 | > 24 | 00 | 2 | 85 | > 24 | – | –
9 | CCCC[C@H](NC(=O)C(C)(Cc1c(F)cccc1F)NC(=O)[C@H](CCC(N)=O)NC(=O)[C@@H](NC(=O)[C@H](CCC(=O)O)NC(=O)C(C)(C)NC(=O)[C@@H](NC(=O)C1(N)CCCC1)C(C)C)[C@@H](C)CC)C(=O)N[C@@H](Cc1c[nH]cn1)C(=O)N[C@@H](CCC(N)=O)C(=O)N[C@@H](CCCCNC(N)=O)C(=O)NC(C)(C)C(=O)NC(C)(C)C(=O)NC(C)(Cc1c(F)cccc1F)C(N)=O (some centres unmarked) [Seq. ID. 440] (H-[Ac5c]V[Aib]EIQ[ξαMePhe(2,6-F2)][Nle]HQ[hCit][Aib][Aib][ξαMePhe(2,6-F2)]-NH2) | – | 0 | 43 | 4 | > 24 | 00 | 2 | 84 | > 24 | – | –
10 | CCCC[C@H](NC(=O)C(C)(Cc1ccccc1F)NC(=O)[C@H](CCC(N)=O)NC(=O)[C@@H](NC(=O)[C@H](CCC(=O)O)NC(=O)C(C)(C)NC(=O)[C@@H](NC(=O)C1(N)CCCC1)C(C)C)[C@@H](C)CC)C(=O)N[C@@H](Cc1c[nH]cn1)C(=O)N[C@@H](CCC(N)=O)C(=O)N[C@@H](CCCCNC(N)=O)C(=O)NC(C)(C)C(=O)N[C@@H](CCCNC(=N)N[N+](=O)[O-])C(=O)NC(C)(Cc1ccccc1F)C(N)=O (some centres unmarked) [Seq. ID. 460] (H-[Ac5c]V[Aib]EIQ[ξαMePhe(2-F)][Nle]HQ[hCit][Aib][Arg(NO2)][ξαMePhe(2-F)]-NH2) | – | 71 | 14 | – | – | 40 | 1 | 78 | 8 | (8) h | (6) h
